Reference: patent US12012383B2, “Compositions and methods for inhibiting dihydroorotate dehydrogenase” (Clear Creek Bio, Inc., priority 2018, dated 2024)
Where two headings read alike, the source gives them in different places.

How the values were obtained:
DHODH [1] = target: DHODH (Mus musculus, UniProt O35435); experiment: Plasma DHO in mice after brequinar 50 mg/kg (FIG. 6); details: at about 84 hours, FIG. 6 dashed line
[2] = Adverse events in subjects receiving brequinar intravenously once a week (Example 2); format: in vivo, human; details: 209 subjects, i.v. once a week, median dose 1200 mg/m^2
mouse model of AML = details: daily administration of high doses; cited from earlier work
DHODH [3] = target: DHODH (Homo sapiens, UniProt Q02127); details: for DHO plasma level threshold achieved: after a dose
[4] = test system: acute myeloid leukemia (AML); experiment: Clinical response of patients with AML to brequinar-containing composition (Examples 9-11); format: in vivo, human
advanced malignancies = details: cited from earlier work
solid malignancies = details: 43 patients; patient with papillary carcinoma of the thyroid (Schwartsmann); cited from earlier work
[5] = Example 9, first patient with AML, threshold 1,600 ng/mL
[6] = Example 10, second patient with AML, threshold 2,900 ng/mL
[7] = Example 11, patient with AML, threshold 133 ng/mL

Chain of DHODH (Homo sapiens, UniProt Q02127) (Q02127 whole entry): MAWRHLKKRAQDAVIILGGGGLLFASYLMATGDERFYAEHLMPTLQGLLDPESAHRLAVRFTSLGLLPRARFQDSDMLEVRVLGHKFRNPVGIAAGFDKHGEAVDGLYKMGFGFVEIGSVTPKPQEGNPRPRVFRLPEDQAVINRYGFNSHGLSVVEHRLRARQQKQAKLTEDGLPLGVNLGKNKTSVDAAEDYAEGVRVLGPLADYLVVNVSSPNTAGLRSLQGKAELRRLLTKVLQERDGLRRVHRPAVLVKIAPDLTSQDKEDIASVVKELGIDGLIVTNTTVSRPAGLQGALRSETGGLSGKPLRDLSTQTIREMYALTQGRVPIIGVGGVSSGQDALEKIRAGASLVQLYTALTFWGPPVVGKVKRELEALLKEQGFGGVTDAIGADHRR
Chain of DHODH (Mus musculus, UniProt O35435) (O35435 whole entry): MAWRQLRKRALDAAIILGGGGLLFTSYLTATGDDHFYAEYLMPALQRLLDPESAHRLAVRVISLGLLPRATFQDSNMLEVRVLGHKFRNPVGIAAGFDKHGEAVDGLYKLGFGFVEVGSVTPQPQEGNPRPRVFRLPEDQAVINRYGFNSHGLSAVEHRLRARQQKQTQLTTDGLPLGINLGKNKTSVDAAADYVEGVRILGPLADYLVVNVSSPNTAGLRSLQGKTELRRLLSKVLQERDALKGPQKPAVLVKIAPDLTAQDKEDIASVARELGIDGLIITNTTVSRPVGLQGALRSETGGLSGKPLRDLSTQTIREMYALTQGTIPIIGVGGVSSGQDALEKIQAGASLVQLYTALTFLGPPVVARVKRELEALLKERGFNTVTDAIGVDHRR

Cc1c(-c2ccc(-c3ccccc3F)cc2)nc2ccc(F)cc2c1C(=O)O [brequinar, 6-fluoro-2-(2′-fluoro-1,1′ biphenyl-4-yl)-3-methyl-4-quinoline carboxylic acid]
concentration of DHO remaining in the plasma (DHODH [1]): about 100 ng/mL
Dyspepsia: No. of Patients Experiencing the AE, Max Grade 1 [2]: 6
toxicity in mouse model of AML (mouse model of AML): weight loss, anemia, and thrombocytopenia
DHO plasma level threshold achieved (DHODH [3]; Example 9, first patient with AML): ≥ 1,600 ng/mL
time remained above DHO threshold (DHODH [3]; [5]): 84 h
time to achieve DHO plasma level threshold (DHODH [3]; [5]): less than 24 hours
DHO plasma level threshold achieved (DHODH [3]; Example 10, second patient with AML): ≥ 2,900 ng/mL
time remained above DHO threshold (DHODH [3]; [6]): 84 h
time to achieve DHO plasma level threshold (DHODH [3]; [6]): < 24 h
DHO plasma level threshold achieved (DHODH [3]; Example 11, patient with AML): ≥ 133 ng/mL
time remained above DHO threshold (DHODH [3]; [7]): 84 h
time to achieve DHO plasma level threshold (DHODH [3]; [7]): less than 2 hours
clinical response ([4]; Example 9, first patient with AML, bone marrow blast count, extramedullary hematopoiesis, differentiation of peripheral blasts): positive response
clinical response ([4]; Example 10, second patient with AML, peripheral blasts, absolute neutrophil count, differentiation of peripheral blasts): positive response
clinical response ([4]; Example 11, patient with AML, trend towards differentiation of peripheral blasts): positive response
effect of combination on individual drug pharmacokinetic parameters (advanced malignancies; 650 mg/m^2 brequinar with 75 mg/m^2 cisplatin (Burris)): without significant modifications of individual drug pharmacokinetic parameters
brequinar dose that can be administered with full dose cisplatin (advanced malignancies; brequinar days 1, 8 and 15 with 75 mg/m^2 cisplatin day 1, 28-day cycle (Burris)): 650 mg/m^2

Cc1c(-c2ccc(-c3ccccc3F)cc2)nc2ccc(F)cc2c1C(=O)O [Brequinar sodium]
tumor response observed (solid malignancies): One mixed response
